These are literature values, as cited in patent US20030190360A1, “Chronotherapeutic dosage forms containing glucocorticosteroid and methods of treatment” (priority 2001, published 2003).

The conditions of this data set: equivalent doses of glucocorticoids.
With `C[C@]12CCC(=O)C=C1CC[C@@H]1[C@@H]2[C@@H](O)C[C@@]2(C)[C@H]1CC[C@]2(O)C(=O)CO` [Hydrocortisone], the “Approximate Equivalent Dose” value is given as 20 mg.

For `C[C@]12CCC(=O)C=C1CC[C@@H]1[C@@H]2C(=O)C[C@@]2(C)[C@H]1CC[C@]2(O)C(=O)CO` [Cortisone], the “Approximate Equivalent Dose” value was 25 mg.

On to `C[C@]12C=CC(=O)C=C1CC[C@H]1[C@@H]3C[C@@H](O)[C@](O)(C(=O)CO)[C@@]3(C)C[C@H](O)[C@@]12F` [Triamcinolone], for which the “Approximate Equivalent Dose” value was 4 mg.

Consider `C[C@]12C=CC(=O)C=C1CC[C@@H]1[C@@H]2[C@@H](O)C[C@@]2(C)[C@H]1CC[C@]2(O)C(=O)CO` [Prednisolone], for which the “Approximate Equivalent Dose” value is recorded as 5 mg.
